From patent US20060014709A1, “Drug or cosmetic” (priority 2002, published 2006) come the findings set out here.

Structures are written as SMILES. Where “and” joins values, the source holds several entries; their conditions need not be identical. Identical values can stand only once. Entries after “also recorded” stand apart in the source; their conditions may differ. Where only a bound is given, the exact number is not on record here.

The test system of test [1] is male SD rats, obstruction-released kidney (glomerular lesions and tubulointerstitial lesions). As to the kind of experiment: Obstruction release model after complete obstruction of unilateral ureter for 14 days (Example 2-2). Details: key to Tubulointerstitial lesions: level of lesions: summed lesion score; + = 1, ++ = 2, +++ = 3; ≤6.5 improved. Conditions: rat, 30 mg/kg subcutaneously. It is filed as in vivo. From the text: (§1) That is, the rat was laparotomized under anesthesia with ether and left ureter was ligated with 7-0 Nylon at the height of the margin of lower pole of kidney to close the abdomen. On the 14th day after obstruction, the obstruction was released and urinary passage was reconstructed using a cuff. Thus, after 14 days, the part of ligated obstructed ureter was resected, a polyethylene tube of 25 gages (manufactured by Nippon Sherwood) was used as a cuff and inserted into and retained at the lumen from the cut end of the lower normal ureter, then the cuff was also retained in the expanded upper ureter and each of them was ligated and fixed by 7-0 Nylon to reconstruct the urinary passage. At the same time, the right kidney at the opposite side was excised. After the release of the obstruction, body weight was measured, blood was drawn on the 2nd day, 5th day and 7th day from the release to measure serum creatinine, then the rat was killed under anesthesia and the left obstruction-released kidney was excised.
(§2) An in vivo biological test was carried out for the γ-lactone derivative according to the present invention using this model. Bulk powder of a test compound was dissolved in sterile physiological saline together with gum arabic, and concentrations of the test compound and gum arabic were adjusted to 30 mg/mL and 5% respectively. The preparation was administered orally or subcutaneously injected at the dose of 30 mg/kg or 3 mg/kg every day. The administration was conducted for the total 21 days of the obstructed period for 14 days and after release of the obstruction for 7 days.
For cell surface markers of leukocyte cells which infiltrate the obstruction-released kidney, ED1, CD11b (ED8), CD5 and CD2 were used. […] For CD5^+, a number of not less than 20 per glomerulus was considered as positive. For glomerular lesions, which was characterized by Bowman's capsule wall, glomerular hyalinosis, dilation of urinary space pole and hypertrophy of parietal cells, 50 glomeruli were evaluated to obtain a proportion of pathologic glomeruli. For tubulointerstitial lesions, levels of the lesions were represented by qualifying hyperplasia of tubular basement membrane, tubular enlargement and atrophy and interstitial fibrosis. Scoring was as follows: + gets 1-point as a light lesion; ++ gets 2-point as a moderate lesion; and +++ gets 3-point as a severe lesion. Levels of cell infiltration were evaluated qualitatively according to the above three-point scale. For glomerular lesions, when a proportion of lesioned glomeruli was decreased to not more than 20%, and for tubulointerstitial lesions, when a score of the lesions was not more than 6.5, it was considered as improved.
Numbers of cells positive for CD11b (ED8), CD2 and CD5 were compared by means of immunopathology, and CD11b^+CD2^+ macrophages were considered as regeneration-promoting macrophages in glomeruli and CD11b^−CD2^+CD5+ macrophages were considered as regeneration-promoting macrophages to tubulointerstitial lesions, and herewith, it was estimated whether each cell group is quantitatively dominant or not.

The test system is the same in test [2]. As to the kind of experiment: Obstruction release model after complete obstruction of unilateral ureter for 14 days (Example 2-1). It counts as in vivo. Details: key to Tubulointerstitial lesions: level of lesions (quality): summed lesion score: + = 1, ++ = 2, +++ = 3 points. Conditions: rat.
Description: as §1
With regard to the excised kidney, there were carried out measurements of weight of the kidney, creatinine concentration mg/dl in plasma as an indicator of kidney function and pathological test for the kidney, and also leukocyte cells which infiltrate the obstruction-released kidney were immunopathologically studied with cell surface markers for ED1 macrophages, CD11b (ED8) positive macrophages and CD5 positive lymphocytes. A number of positive cells was expressed as a number of cells per glomerulus from measured numbers of positive cells in five glomeruli, and for a number in tubulointerstitial tissue, it was expressed by the total number of cells existing in five fields of 200×magnification. For macrophages, a number of CD11b positive cells existing in glomerulus was considered as a number of CD11b^+CD2^+ macrophages and a case of existing not less than one positive cell per glomerulus was considered as positive (+). In the tubulointerstitial tissue, a number of […] 60 CD11b positive cells was considered as positive (+), or a case of CD11b^−CD2^+ macrophages dominantly increasing. Scoring of evaluation of tubulointerstitial lesions was as follows: + gets 1-point as a light lesion; ++ gets 2-point as a moderate lesion; and +++ gets3-point as a severe lesion. For glomerular lesions, when a proportion of lesioned glomeruli was decreased to not more than 40%, and for tubulointerstitial lesions, when a score of the lesions was not more than 4, it was considered as improved.
For glomerular lesions, by counting glomeruli causing thickening of Bowman's capsule wall and glomerular hyalinosis, a proportion of glomeruli having lesions was calculated. For tubulointerstitial lesions, by qualifying hyperplasia of tubular basement membrane and interstitial fibrosis, levels of the lesions were represented.
as §2
For test groups, a group administered single compound group, a group administered both compound group and a control group administered solution of gum arabic were set up and compared for renal functions and morphological evaluations, as well as numbers of ED1, CD5, CD11b positive cells by means of immunopathology.

[3] abbreviates: 30 mg/kg subcutaneously every day for 21 days, one value per animal, 30 mg/kg.

Turning to `O=C1OC(Cl)(C(=O)OCc2ccccc2)c2ccccc21` (stereo not shown) [compound (I-3), 1-chloro-3-oxo-1,3-dihydroisobenzofuran-1-carboxylic acid benzyl ester], in test [1], the “cases in which regeneration-promoting CD11b^+CD2^+ macrophages were predominant in glomeruli” value was “three of four cases”, the “cases in which regeneration-promoting CD11b^−CD2^+CD5+ macrophages were predominant in tubulointerstitial lesions” value is listed as “three of four cases”, the “difference in serum creatinine” value is “no difference” and the “pathological improvement of glomerular lesions (cases)” value is “all four cases”. Besides, the “pathological improvement of tubulointerstitial lesions (cases)” value in test [1] is listed as “two of four cases”. For the same compound, in test [1] (one value per animal, 30 mg/kg), the “Coincidence of two regeneration macrophages being positive” value was “Coincident”; the “Degree of cell infiltration” value was “+ and +++”; the “Number of regeneration CD11b^+CD2^+ macrophages to glomerular lesions: number of positive cells per glomerulus CD11b^+CD2^+” value was 4.3 cells per glomerulus and 1.8 cells per glomerulus (2×) and 0.5 cells per glomerulus; the “Number of regeneration CD11b^−CD2^+CD5^+ macrophages to tubulointerstitial lesions: number of positive cells in five fields of 200× magnification, CD5^+” value was 77 cells in five fields of 200× m and 25 cells in five fields of 200× m and 60 cells in five fields of 200× m and 20 cells in five fields of 200× m. In test [1] (one value per animal, 30 mg/kg), the “Number of regeneration CD11b^−CD2^+CD5^+ macrophages to tubulointerstitial lesions: number of positive cells in five fields of 200× magnification, CD11b^+” value is 62 cells in five fields of 200× m and 53 cells in five fields of 200× m and 14 cells in five fields of 200× m and 22 cells in five fields of 200× m; the “Regeneration macrophages to glomerular lesions, Determination Increase +” value was “+ (a case of existing not less than one positive cell per glomerulus was considered as positive (+))”; the Serum creatinine is 2.8 mg/dL and 1.4 mg/dL and 2.1 mg/dL and 1.7 mg/dL; the “Tubulointerstitial lesions: level of lesions” value is 6.5 and 3.5 and 7.0 and 8.5. For the same compound, the “Glomerular lesions: proportion of lesioned glomeruli (%)” value in test [1] (one value per animal, 50 glomeruli evaluated) is given as less than 1%. For the same compound, the “Regeneration CD11b^−CD2^+CD5^+ macrophages to tubulointerstitial lesions, Determination Increase +” value in test [1] (one value per animal, CD11b^+ not more than 60 and CD5^+ not less than 20, 30 mg/kg) was “+ (For CD5^+, a number of not less than 20 per glomerulus was considered as positive)”.

With `O=C1CCC(F)(C(=O)OCc2ccccc2)O1` (stereo not shown) [compound (II-2), 2-fluoro-5-oxotetrahydrofuran-2-carboxylic acid benzyl ester], in test [2] (30 mg/kg subcutaneously), the “cases with increased regeneration-promoting CD11b^+CD2^+ macrophages to glomerular lesions” value is “Regeneration-promoting macrophages were increased on both lesions” and the “cases with increased regeneration-promoting CD11b^−CD2^+ macrophages to tubulointerstitial lesions” value is reported as “Regeneration-promoting macrophages were increased on both lesions”. Besides, the “Regeneration CD11b^−CD2^+ macrophages to tubulointerstitial lesions, Determination: increase +” value in test [2] (30 mg/kg subcutaneously every day for 21 days, one value per animal) was “+ (a number of not more than 60 CD11b positive cells was considered as positive (+))”. Besides, in test [2] (setting [3]), the “Coincidence of two regeneration macrophages being positive” value is recorded as “Not coincident; also recorded: Coincident”; the “Glomerular lesions: proportion of lesioned glomeruli (%)” value is 32% and 28% and 19% and 18%; the “Number of regeneration CD11b^+CD2^+ macrophages to glomerular lesions: number of positive cells per glomerulus” value is 0.7 cells per glomerulus and 1.7 cells per glomerulus and 2.3 cells per glomerulus and 1.4 cells per glomerulus; the “Number of regeneration CD11b^−CD2^+ macrophages to tubulointerstitial lesions: number of positive cells (CD11b) in five fields of 200× magnification” value is 33 cells in five fields of 200× m and 35 cells in five fields of 200× m and 27 cells in five fields of 200× m and 16 cells in five fields of 200× m. Also, in test [2] (setting [3]), the “Regeneration CD11b^+CD2^+ macrophages to glomerular lesions, Determination: increase = +” value is on record as “+ (a case of existing not less than one positive cell per glomerulus was considered as positive (+))”; the Serum creatinine is 2.0 mg/dl (2×) and 2.5 mg/dl and 2.3 mg/dl; the “Tubulointerstitial lesions: level of lesions (quality)” value is 4.5 (2×) and 6.5 (2×).
